Series [1] has as its system NCI-H1975. Kind of series: cells. Conditions: Homo sapiens, NCI-H1975, 72 h.
Description: Antiproliferative activity against human NCI-H1975 cells harboring EGFR T790M mutant after 72 hrs by CCK8 assay
In the next series the test system is HCC827. Kind of series: cells. The note with it: Homo sapiens, HCC827, 72 h.
The next series deals with MDA-MB-453. Kind of series: Antiproliferative activity against human MDA-MB-453 cells after 72 hrs by CCK8 assay. Conditions: MDA-MB-453, 72 h. Type of series: functional, cell-based.
The subject of a further series is A-431. Kind of series: cells. Conditions: Homo sapiens, A-431, 72 h.
The subject of series [2] is NCI-H1975. Kind of series: Antitumor activity against human NCI-H1975 cells harboring EGFR T790M mutant xenografted in po dosed BALB/c mouse assessed as tumor growth inhibition administered via gavage qd or qod for 14 days measured at 7 days post last dose. It counts as functional, organism-based.
The test system of series [3] is NCI-H1975. Kind of series: Antitumor activity against human NCI-H1975 cells harboring EGFR T790M mutant xenografted in BALB/c mouse assessed as tumor growth inhibition at 20 mg/kg, po administered daily via gavage for 14 days measured at 7 days post last dose relative to control. It counts as functional.
A short description of series [4]: Oral bioavailability in Sprague-Dawley rat at 10 mg/kg. It counts as ADME, organism-based. Conditions: in vivo.
Series [5] has as its target Epidermal growth factor receptor (Homo sapiens, UniProt P00533). Kind of series: Inhibition of recombinant human GST-tagged EGFR catalytic domain (668 to 1210 residues) expressed in baculovirus expression system using TK-biotin peptide as substrate measured after 10 mins by HTRF assay.
A short description of series [6]: Cmax in Sprague-Dawley rat at 5 mg/kg, iv or 10 mg/kg, po. It counts as ADME, organism-based. The note with it: in vivo.
Series [7] deals with NCI-H1975. Kind of series: Antitumor activity against human NCI-H1975 cells harboring EGFR T790M mutant xenografted in BALB/c mouse assessed as tumor growth inhibition at 5 mg/kg, po administered daily via gavage for 14 days measured at 7 days post last dose relative to control. It counts as functional.
Series [8] is described as follows: Half life in Sprague-Dawley rat at 5 mg/kg, iv or 10 mg/kg, po. It counts as ADME, organism-based. Conditions: in vivo.
Series [9] is described as follows: Tmax in Sprague-Dawley rat at 5 mg/kg, iv or 10 mg/kg, po. The note with it: in vivo. Type of series: ADME, organism-based.
The subject of series [10] is NCI-H1975. Kind of series: Antitumor activity against human NCI-H1975 cells harboring EGFR T790M mutant xenografted in BALB/c mouse assessed as tumor growth inhibition at 80 mg/kg, po administered every other day via gavage for 14 days measured at 7 days post last dose relative to control. Type of series: functional.
Series [11] concerns NCI-H1975. Kind of series: Antitumor activity against human NCI-H1975 cells harboring EGFR T790M mutant xenografted in BALB/c mouse assessed as tumor growth inhibition at 20 mg/kg, po administered every other day via gavage for 14 days measured at 7 days post last dose relative to control. Type of series: functional.

Chain of Epidermal growth factor receptor (P00533 whole entry, the tested form may be a part): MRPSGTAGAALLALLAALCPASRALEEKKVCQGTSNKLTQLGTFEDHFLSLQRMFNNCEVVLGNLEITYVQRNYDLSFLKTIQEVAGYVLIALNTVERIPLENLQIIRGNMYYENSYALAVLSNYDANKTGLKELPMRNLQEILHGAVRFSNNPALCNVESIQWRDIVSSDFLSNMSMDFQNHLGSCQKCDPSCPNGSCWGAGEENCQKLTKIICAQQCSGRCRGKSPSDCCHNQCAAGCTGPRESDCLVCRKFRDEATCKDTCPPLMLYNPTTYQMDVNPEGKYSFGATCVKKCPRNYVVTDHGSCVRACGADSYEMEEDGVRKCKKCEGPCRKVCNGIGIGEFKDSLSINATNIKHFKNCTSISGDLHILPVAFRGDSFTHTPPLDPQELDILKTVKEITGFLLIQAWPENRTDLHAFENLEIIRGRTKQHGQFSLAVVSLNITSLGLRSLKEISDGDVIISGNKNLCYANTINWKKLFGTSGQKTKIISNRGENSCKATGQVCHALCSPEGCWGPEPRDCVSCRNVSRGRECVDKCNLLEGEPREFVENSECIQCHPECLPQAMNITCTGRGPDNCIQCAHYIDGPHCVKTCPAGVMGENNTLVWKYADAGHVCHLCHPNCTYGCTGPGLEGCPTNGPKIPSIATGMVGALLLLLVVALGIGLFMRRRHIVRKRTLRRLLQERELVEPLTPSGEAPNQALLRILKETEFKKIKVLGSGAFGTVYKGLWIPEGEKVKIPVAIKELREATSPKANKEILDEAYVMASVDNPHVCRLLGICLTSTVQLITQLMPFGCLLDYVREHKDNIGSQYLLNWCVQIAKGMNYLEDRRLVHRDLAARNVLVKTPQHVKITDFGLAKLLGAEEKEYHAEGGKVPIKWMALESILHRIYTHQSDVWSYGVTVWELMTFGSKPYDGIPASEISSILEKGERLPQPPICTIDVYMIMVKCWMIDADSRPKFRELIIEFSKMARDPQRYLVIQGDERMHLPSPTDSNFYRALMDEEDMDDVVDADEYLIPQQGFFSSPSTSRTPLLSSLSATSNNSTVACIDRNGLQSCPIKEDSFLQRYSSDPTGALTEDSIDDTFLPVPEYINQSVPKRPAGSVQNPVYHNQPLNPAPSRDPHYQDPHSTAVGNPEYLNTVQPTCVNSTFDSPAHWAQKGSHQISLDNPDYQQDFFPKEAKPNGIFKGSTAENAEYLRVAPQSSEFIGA
Description for A-431: Antiproliferative activity against human A431 cells harboring wild-type EGFR after 72 hrs by CCK8 assay
Description for HCC827: Antiproliferative activity against human HCC827 cells harboring EGFR L858R mutant after 72 hrs by CCK8 assay

On to `CCOCCOc1cc2ncnc(Nc3ccc(OCCOC)c(Cl)c3)c2cc1NC(=O)/C=C/CN(C)C`, for which the IC50 in the series on NCI-H1975 [1] came to 7.3 nM; with HCC827 it was 3.43 nM; in the series on MDA-MB-453, 1.65 nM; with A-431 it was 20.1 nM.
As for `CCOCCOc1cc2ncnc(Nc3ccc(OCc4cccc(F)c4)c(Cl)c3)c2cc1NC(=O)/C=C/CN(C)C`, the IC50 in the series on NCI-H1975 [1] was 49.7 nM; in the series on A-431, 79.5 nM.
Turning to `C#CC(=O)Nc1cc2c(Nc3ccc(F)c(Cl)c3)ncnc2cc1OCCOCC`, the half-maximal inhibitory concentration (IC50) amounted to 49.3 nM with NCI-H1975 [1], 1.46 nM in the series on HCC827, 3.42 nM in the series with MDA-MB-453 and 11.4 nM with A-431.
For `CCOCCOc1cc2ncnc(Nc3ccc(F)c(Cl)c3)c2cc1NC(=O)/C=C/C(F)(F)F`, in that order: 27.6 nM, 0.15 nM, 18.3 nM and 148 nM.
Regarding `C=CS(=O)(=O)Nc1cc2c(Nc3ccc(F)c(Cl)c3)ncnc2cc1OCCOCC`, the IC50 in the series on NCI-H1975 [1] was determined as 13.7 nM; in the series with HCC827 it was 3.95 nM; with MDA-MB-453 it was 130 nM; in the series with A-431, 3.37 nM.
For `CCOCCOc1cc2ncnc(Nc3ccc(NCCS(C)(=O)=O)c(Cl)c3)c2cc1NC(=O)/C=C/CN(C)C` the same measures were 65.6 nM, 0.53 nM, 12.7 nM and 6.48 nM.
For `CCOCCOc1cc2ncnc(Nc3ccc(F)c(Cl)c3)c2cc1NC(=O)/C=C\C#N` the same measures were 18.4 nM, 5.56 nM, 0.68 nM and 94.8 nM.
`CCOCCOc1cc2ncnc(Nc3ccc(F)c(Cl)c3)c2cc1NC(=O)/C=C/CN(C)C` [listing 1 of 2 here]: the TGI entry in the series on NCI-H1975 [2] was “Dose-dependent effect”.
For the molecule `CCOCCOc1cc2ncnc(Nc3ccc(OCC(F)(F)F)c(Cl)c3)c2cc1NC(=O)/C=C/CN(C)C`, the IC50 stood at 107 nM in the series with NCI-H1975 [1], 2.9 nM with HCC827, 2.55 nM in the series with MDA-MB-453 and 64.1 nM with A-431.
For `CCOCCOc1cc2ncnc(Nc3ccc(F)c(Cl)c3)c2cc1NC(=O)/C=C/Br`, the IC50 in the series with NCI-H1975 [1] came out at 8.21 nM; in the series on HCC827 it was 4.86 nM; in the series with MDA-MB-453, 3.99 nM; in the series with A-431, 297 nM.
`CCOCCOc1cc2ncnc(Nc3ccc(F)c(Cl)c3)c2cc1NC(=O)/C=C/Cl`: the IC50 with NCI-H1975 [1] worked out at 7.43 nM; in the series on MDA-MB-453, 14.9 nM; in the series with A-431 it was 289 nM.
In the case of `CN(C)C/C=C/C(=O)Nc1cc2c(Nc3ccc(F)c(Cl)c3)ncnc2cc1O[C@H]1CCOC1` [AFATINIB], in the series on NCI-H1975 [3], the inhibition in vivo at 20 mg/kg was 67.6%.
On to `COC[C@@H](C)Oc1cc2ncnc(Nc3ccc(F)c(Cl)c3)c2cc1NC(=O)/C=C/CN(C)C`, for which the IC50 with NCI-H1975 [1] worked out at 49.9 nM; in the series with A-431, 43 nM.
For the molecule `C=C(F)C(=O)Nc1cc2c(Nc3ccc(F)c(Cl)c3)ncnc2cc1OCCOCC`, the 50% inhibitory concentration (IC50) is 72.5 nM in the series with NCI-H1975 [1], 0.53 nM in the series with HCC827, 58.2 nM with MDA-MB-453 and 54.5 nM in the series on A-431.
As for `COCCCOc1cc2ncnc(Nc3ccc(F)c(Cl)c3)c2cc1NC(=O)/C=C/CN(C)C`, the midpoint of inhibition in the series on HCC827, the IC50, lay at 0.29 nM.
For `CCOCCOc1cc2ncnc(Nc3ccc(F)c(Cl)c3)c2cc1NC(=O)/C=C\Cl`, the values for the IC50 in the series with NCI-H1975 [1] and with A-431 were 1.6 nM and 24 nM, respectively.
For the molecule `CCOCCOc1cc2ncnc(Nc3ccc(F)c(Cl)c3)c2cc1NC(=O)/C=C/CN(C)C.O=C(O)/C=C\C(=O)O`, the bioavailability in [4] is 70%.
On to `C=C(Cl)C(=O)Nc1cc2c(Nc3ccc(F)c(Cl)c3)ncnc2cc1OCCOCC`, for which the half-inhibitory concentration (IC50) in the series on NCI-H1975 [1] turned out to be 37.1 nM; in the series on HCC827, 33.2 nM; with MDA-MB-453, 3.71 nM; in the series on A-431, 369 nM.
As to `CCOCCOc1cc2ncnc(Nc3ccc(F)c(Cl)c3)c2cc1NC(=O)/C=C/C(=O)OCC`, the IC50 in the series on NCI-H1975 [1] came out at 35.2 nM; in the series with HCC827, 0.987 nM; in the series with MDA-MB-453, 21.6 nM; in the series with A-431 it was 207 nM.
Consider `C=C(Br)C(=O)Nc1cc2c(Nc3ccc(F)c(Cl)c3)ncnc2cc1OCCOCC`, for which the concentration for half-maximal inhibition (IC50) with NCI-H1975 [1] is 39.4 nM; in the series on HCC827, 6.39 nM; in the series with MDA-MB-453 it was 15.1 nM; in the series on A-431, 572 nM.
On to `CCCOCCOc1cc2ncnc(Nc3ccc(F)c(Cl)c3)c2cc1NC(=O)/C=C/CN(C)C`, for which the results for the IC50 in the series with HCC827 and with A-431 were 0.55 nM and 8.15 nM, respectively.
On to `CCOCCOc1cc2ncnc(Nc3ccc(F)c(Cl)c3)c2cc1NC(=O)/C=C/CN(C)C` [listing 2 of 2 here], for which the concentration for half-maximal inhibition (IC50) in series [5] came out at 0.69 nM; with HCC827, 0.31 nM; with MDA-MB-453 it was 0.62 nM; in the series on A-431, 1.52 nM. Moreover, the maximum concentration (Cmax) in series [6] is 92.3 ng/mL. The bioavailability in series [4] turned out to be 46%. In addition, in the series with NCI-H1975 [7], the inhibition in vivo at 5 mg/kg turned out to be 73.2%. In addition, in [8], the half-life is 6.8 h. Also, in series [9], the time to peak (Tmax) worked out at 4 h. Besides, the inhibition in vivo at 80 mg/kg in the series with NCI-H1975 [10] was found to be 95.1%. The inhibition in vivo at 20 mg/kg with NCI-H1975 [11] turned out to be 82%.
Turning to `COC[C@H](C)Oc1cc2ncnc(Nc3ccc(F)c(Cl)c3)c2cc1NC(=O)/C=C/CN(C)C`, the IC50 in the series on NCI-H1975 [1] was 66.5 nM; in the series with A-431, 16.7 nM.
As for `CCOCCOc1ccc(Nc2ncnc3cc(OCCOCC)c(NC(=O)/C=C/CN(C)C)cc23)cc1Cl`, the half-inhibitory concentration (IC50) in the series on NCI-H1975 [1] came out at 6.17 nM; in the series with HCC827, 0.34 nM; in the series on MDA-MB-453, 2.52 nM; in the series on A-431 it was 13.7 nM.
On to `C=CC(=O)Nc1cc2c(Nc3ccc(F)c(Cl)c3)ncnc2cc1OCCOCC`, for which the IC50 in the series with NCI-H1975 [1] is 51.8 nM; in the series on HCC827, 0.15 nM; in the series with MDA-MB-453, 5.67 nM; with A-431 it was 6.01 nM.
In the case of `CC(C)OCCOc1cc2ncnc(Nc3ccc(F)c(Cl)c3)c2cc1NC(=O)/C=C/CN(C)C`, the IC50 amounted to 0.55 nM in the series with HCC827 and 5.86 nM in the series with A-431.
